According to PubChem BioAssay AID248 (DTP/NCI, 2004):
“And” between values parts separate entries of the source, which are not always exact repeats. Identical values can stand only once. Inconclusive results and toxic doses are left out.

Test system: L1210 leukemia ip in BDF1 mice, survival T/C
Assay: NCI In Vivo Anticancer Drug Screen. Data for tumor model L1210 Leukemia (intraperitoneal) in B6D2F1 (BDF1) mice
Conditions: endpoint: mean survival time, higher = longer survival
Method in brief: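 Antitumor effect is assessed in tumor-bearing animals. Survival in the compound arm is compared with a vehicle-dosed control arm and expressed as their quotient.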

Cc1ccc(N=Nc2c(C)nn(C(N)=S)c2-c2ccccc2)cc1
T/C (dose: 75.0 mg/kg/injection, schedule: Q01DX001 (ip), vehicle: saline): 94 % of control | T/C (dose: 150.0 mg/kg/injection, schedule: Q01DX001 (ip), vehicle: saline): 90 % of control

NC(CCl)=NC1CCCCC1
T/C (dose: 25.0 mg/kg/injection, schedule: Q04DX002 (ip), vehicle: saline): 106 % of control | T/C (dose: 50.0 mg/kg/injection, schedule: Q04DX002 (ip), vehicle: saline): 100 % of control | T/C (dose: 100.0 mg/kg/injection, schedule: Q04DX002 (ip), vehicle: saline): 110 % of control and 120 % of control

Cc1cc(C)c2c(c1)C/C2=N/N=C1/Cc2cc(C)cc(C)c21
T/C (dose: 50.0 mg/kg/injection, schedule: Q04DX002 (ip), vehicle: Klucel (hydroxypropylcellulose) (HPC)): 120 % of control | T/C (dose: 100.0 mg/kg/injection, schedule: Q04DX002 (ip), vehicle: Klucel (hydroxypropylcellulose) (HPC)): 100 % of control | T/C (dose: 200.0 mg/kg/injection, schedule: Q04DX002 (ip), vehicle: Klucel (hydroxypropylcellulose) (HPC)): 92 % of control

Cc1ccc(S(=O)(=O)NC(C)(C)CN)cc1
T/C (dose: 75.0 mg/kg/injection, schedule: Q01DX001 (ip), vehicle: other): 103 % of control | T/C (dose: 150.0 mg/kg/injection, schedule: Q01DX001 (ip), vehicle: other): 101 % of control | T/C (dose: 300.0 mg/kg/injection, schedule: Q01DX001 (ip), vehicle: other): 95 % of control
